Results on two compounds are retold here after patent publication US20230301969A1, “DOSING SCHEDULE FOR A METHOD OF TREATMENT WITH DHODH INHIBITORS” (Bayer Aktiengesellschaft, priority 2020, published 2023).

The test system of series [1] is acute myeloid leukemia xenograft model THP1. Briefly: AML THP1 subcutaneous xenograft, tumor volume. The format is in vivo, SCID mice. The settings on record: start day 16, 7 days of treatment. As to the method: (§1) Tumor cells were injected subcutaneously into the flank of the mice. Treatment was initiated at a predefined tumor size after cell inoculation. BAY 2402234 was applied orally (p.o.) at various dose levels and schedules (daily or intermittent). BAY 2402234 was prepared in solution in PEG400/ETOH 9/1. Animal body weight during the study was monitored at least twice weekly. Subcutaneous tumors were measured with a caliper (length and width) at least twice a week, depending on the doubling time of the tumor. Values are presented as volume. Efficacy was calculated on a specific day according to the formula: T/C (treatment/control ratio)=(mean tumor volume from the treated group/mean tumor volume from the vehicle group). Tumor volume was calculated using (width^2×length)/2.
(§2) AML THP1 cells were inoculated in the flank of SCID mice and 16 days after implantation tumors were measured and animals were randomized at an average tumor volume of around 100 mm^3. Treatment with DHODH Inhibitor BAY2402234 was started at time of randomization. Either daily dosing of 5 mg/kg or 10 mg/kg at a 4 days on/3 days off schedule was used and the drug was given orally in 90/10 PEG400/EtOH formulation. […] The daily dosing sums up to a total weekly dose of 35 mg/kg, while the 4 days on/3 days off schedule sums up to a 40 mg/kg weekly dose.

For series [2], the system named is Mantle cell lymphoma xenograft model Z138. Briefly: Mantle cell lymphoma Z138 subcutaneous xenograft, tumor volume. Type of series: in vivo, SCID mice. The following applies: start day 20. As to the method:
as §1
Mantle Cell Lymphoma Z138 cells were inoculated in the flank of SCID mice and 20 days after implantation tumors were measured and animals were randomized at an average tumor volume of around 100 mm^3. Treatment with DHODH Inhibitor BAY 2402234 was started at time of randomization. Either daily dosing of 5 mg/kg or 10 mg/kg at a 4 days on/3 days off schedule or 5 mg/kg at a 5 days on 2 days off was used and the drug was given orally in 90/10 PEG400/EtOH formulation. The daily dosing sums up to a total weekly dose of 35 mg/kg, while the 4 days on/3 days off schedule sums up to a 40 mg/kg weekly dose and the 5 days on 2 days off sums up to 25 mg/kg weekly dose.

Series [3] has as its system colorectal cancer xenograft model HT29. Nature of the series: Colorectal cancer HT29 subcutaneous xenograft, tumor volume. Type of series: in vivo, mice. The following applies: start day 9. As to the method: as §1
(§3) Colorectal cancer cells were inoculated in the flank of mice and 9 days after implantation tumors were measured and animals were randomized at an average tumor volume of around 80 mm^3. Treatment with DHODH Inhibitor BAY2402234 was started at time of randomization. Either daily dosing of 5 mg/kg or 10 mg/kg at a 5 days on/2 days off schedule or 5 mg/kg at a 5 days on 2 days off was used and the drug was given orally in 90/10 PEG400/EtOH formulation. The daily dosing sums up to a total weekly dose of 35 mg/kg, while the 5 days on/2 days off schedule sums up to a 50 or a 25 mg/kg weekly dose respectively.

Series [4] in a line: Body weight of animals in the HT29 xenograft model (tolerability). The format is in vivo, mice. The following applies: for body weight / tolerability: 5 mg/kg p.o. 5 days on/2 days off, course of the experiment. As to the method: as §1, §3
The conditions of series [5]: mouse, in vivo. As to the method:
as §2

Another series has as its system solid cancer. The following applies: weekly doses or 5 days on 23 days off schedule, cited from earlier work.
The mark [6] stands for this setting: 5 mg/kg p.o. daily (35 mg/kg weekly).
Setting [7] is: 10 mg/kg p.o. 4 days on/3 days off (40 mg/kg weekly).
The mark [8] stands for this setting: 5 mg/kg p.o. 5 days on/2 days off (25 mg/kg weekly).

Entries after “also recorded” stand apart in the source; their conditions may differ. Like-named read-outs stand apart in the source and are kept apart here.

On to `CCn1c(CO)nn(-c2cc(O[C@@H](C)C(F)(F)F)c(C(=O)Nc3c(F)cccc3Cl)cc2F)c1=O` [BAY 2402234, N-(2-chloro-6-fluorophenyl)-4-[4-ethyl-3-(hydroxymethyl)-5-oxo-4,5-dihydro-1H-1,2,4-triazol-1-yl]-5-fluoro-2-{[(2S)-1,1,1-trifluoropropan-2-yl]oxy}benzamide], for which the “development of tumor volume / efficacy” value is listed as “stable disease” in series [1] (setting [6]); “stable disease” in series [1] (setting [7]); “shrinkage of the tumors; also recorded: tumor regression” in series [2] (setting [8]); “shrinkage of the tumors; also recorded: tumor regression” in series [2] (setting [6]); “shrinkage of the tumors; also recorded: tumor regression” in series [2] (setting [7]); “tumor growth inhibition” in series [3] (setting [8]). Moreover, the “development of tumor volume / efficacy” value was “tumor growth delay” in series [3] (5 mg/kg p.o. 5 days on/2 days off (25 mg/kg weekly), listed as BAY2402234); “tumor growth inhibition” in series [3] (setting [6]); “tumor growth delay” in series [3] (5 mg/kg p.o. daily (35 mg/kg weekly), listed as BAY2402234); “tumor growth inhibition; also recorded: slightly stronger” in series [3] (10 mg/kg p.o. 5 days on/2 days off (50 mg/kg weekly)); “tumor growth delay; also recorded: slightly more efficacious” in series [3] (10 mg/kg p.o. 5 days on/2 days off (50 mg/kg weekly), listed as BAY2402234). For the same compound, the “body weight / tolerability” value is given as “relative constant bodyweight” in series [4] and “best tolerated” in series [4] (listed as BAY2402234). Further, the body weight loss result in series [4] (5 mg/kg p.o. daily, at experiments end) is given as “above 10%”; in series [4] (10 mg/kg p.o. 5 days on/2 days off, at the end of the experiment) it was “around 4%”. Moreover, in series [5], the “dose relative to maximal tolerated dose” value is “close to the maximal tolerated dose”.
As to `Cc1c(-c2ccc(-c3ccccc3F)cc2)nc2ccc(F)cc2c1C(=O)O` [Brequinar, 6-fluoro-2-(2′-fluoro-[1,1′-biphenyl]-4-yl)-3-methylquinoline-4-carboxylic acid], the “clinical activity in solid cancer indications” value with solid cancer is “failed to show sufficient clinical activity”; with solid cancer (listed as Brequinar sodium), “ineffective”.
